According to paper PMC8704707 (Pharmaceuticals, 2021):
Values after ≈ are worked out from the molar mass of the structure shown. Values joined by “and” are separate entries in the source; they are usually repeats but may differ in a detail not shown here. Equal values may be shown once. Where a name gives a salt, the structure may show the parent alone. Read-outs that look alike come from different tables or passages of the source.

What was measured:
[1] = tested on: Enterococcus faecalis ATCC 29212; assay: Antibacterial microdilution broth method (EUCAST); assay type: cell-based
[2] = tested on: Acinetobacter baumannii ATCC 19606; assay: Antibacterial microdilution broth method (EUCAST); assay type: cell-based
[3] = tested on: Staphylococcus epidermidis ATCC 12228; assay: Antibacterial microdilution broth method (EUCAST); assay type: cell-based
[4] = biological target: BuChE from equine serum (EqBuChE) (Equus caballus, UniProt P81908); assay: biochemical
[5] = tested on: Escherichia coli ATCC 25922; assay: Antibacterial microdilution broth method (EUCAST); assay type: cell-based
[6] = tested on: methicillin-resistant Staphylococcus aureus ATCC 43300; assay: Antibacterial microdilution broth method (EUCAST); assay type: cell-based; details: ATCC 43300 / MRSA
[7] = tested on: Candida krusei ATCC 6258; assay: microbe, parasite or virus in culture; assay type: cell-based; details: Pichia kudriavzevii
[8] = tested on: Trichophyton interdigitale ATCC 9533; assay: microbe, parasite or virus in culture; assay type: cell-based
[9] = tested on: Candida albicans ATCC 24443; assay: microbe, parasite or virus in culture; assay type: cell-based
[10] = biological target: AChE from electric eel (EeAChE) (Electrophorus electricus, UniProt O42275); assay: biochemical; assay type: biochemical
[11] = tested on: Candida parapsilosis ATCC 22019; assay: microbe, parasite or virus in culture; assay type: cell-based; details: Lodderomyces parapsilosis
[12] = tested on: Candida tropicalis ATCC 750; assay: microbe, parasite or virus in culture; assay type: cell-based
[13] = tested on: Staphylococcus aureus ATCC 29213; assay: Antibacterial microdilution broth method (EUCAST); assay type: cell-based
[14] = tested on: Pseudomonas aeruginosa ATCC 27853; assay: Antibacterial microdilution broth method (EUCAST); assay type: cell-based
[15] = tested on: Klebsiella pneumoniae ATCC 10031; details: for MIC KP 24 h: 24 h incubation; for MIC KP 48 h: 48 h incubation
[16] = ATCC29212, 24 h, read-out: MIC EF 24 h
[17] = ATCC29212, 48 h, read-out: MIC EF 48 h
[18] = ATCC19606, 24 h, read-out: MIC ACI 24 h
[19] = ATCC19606, 48 h, read-out: MIC ACI 48 h
[20] = ATCC12228, 24 h, read-out: MIC SE 24 h
[21] = ATCC12228, 48 h, read-out: MIC SE 48 h
[22] = mean ± SD, n = three independent experiments, BTCh 40 µM, read-out: IC50 BuChE
[23] = ATCC25922, 24 h, read-out: MIC EC 24 h
[24] = ATCC25922, 48 h, read-out: MIC EC 48 h
[25] = mean ± SD, n = three independent experiments, ATCh 40 µM, read-out: IC50 AChE
[26] = ATCC29213, 24 h, read-out: MIC SA 24 h
[27] = ATCC29213, 48 h, read-out: MIC SA 48 h
[28] = ATCC27853, 24 h, read-out: MIC PA 24 h
[29] = ATCC27853, 48 h, read-out: MIC PA 48 h

BuChE from equine serum (EqBuChE), sequence (P81908 whole entry): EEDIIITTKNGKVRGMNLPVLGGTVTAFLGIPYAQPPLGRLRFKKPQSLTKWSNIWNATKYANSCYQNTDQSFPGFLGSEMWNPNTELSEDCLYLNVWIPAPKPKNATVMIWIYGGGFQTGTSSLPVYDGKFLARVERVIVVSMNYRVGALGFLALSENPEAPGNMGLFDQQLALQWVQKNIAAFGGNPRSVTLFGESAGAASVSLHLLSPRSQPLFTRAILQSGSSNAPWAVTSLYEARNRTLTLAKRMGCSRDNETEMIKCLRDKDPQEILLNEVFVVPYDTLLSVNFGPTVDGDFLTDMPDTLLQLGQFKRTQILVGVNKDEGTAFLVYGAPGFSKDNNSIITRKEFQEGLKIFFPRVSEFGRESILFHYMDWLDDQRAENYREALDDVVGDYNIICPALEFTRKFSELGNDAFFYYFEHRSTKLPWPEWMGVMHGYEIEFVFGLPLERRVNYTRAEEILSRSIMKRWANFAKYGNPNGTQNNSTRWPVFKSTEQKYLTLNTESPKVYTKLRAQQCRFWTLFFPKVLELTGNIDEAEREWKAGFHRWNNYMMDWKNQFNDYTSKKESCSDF
AChE from electric eel (EeAChE), sequence (O42275 24-633): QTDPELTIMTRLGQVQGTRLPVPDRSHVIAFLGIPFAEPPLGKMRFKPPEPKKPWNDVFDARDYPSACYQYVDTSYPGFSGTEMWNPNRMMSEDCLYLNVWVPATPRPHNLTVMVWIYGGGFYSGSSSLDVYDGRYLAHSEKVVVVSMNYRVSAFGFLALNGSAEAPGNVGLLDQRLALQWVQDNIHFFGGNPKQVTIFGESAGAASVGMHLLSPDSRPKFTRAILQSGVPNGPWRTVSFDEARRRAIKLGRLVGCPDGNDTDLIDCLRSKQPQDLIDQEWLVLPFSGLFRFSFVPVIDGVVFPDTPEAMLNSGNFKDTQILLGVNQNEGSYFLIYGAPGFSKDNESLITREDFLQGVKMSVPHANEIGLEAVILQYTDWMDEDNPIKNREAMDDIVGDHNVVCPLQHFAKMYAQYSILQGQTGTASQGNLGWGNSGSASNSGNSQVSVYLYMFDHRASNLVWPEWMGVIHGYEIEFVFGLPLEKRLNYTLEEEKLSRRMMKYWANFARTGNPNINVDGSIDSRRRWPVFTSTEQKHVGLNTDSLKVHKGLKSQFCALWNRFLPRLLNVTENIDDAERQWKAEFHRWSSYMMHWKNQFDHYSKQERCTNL

Structure (SMILES) | MIC [1, 16] [µM] | MIC [1, 17] [µM] | MIC [2, 18] [µM] | MIC [2, 19] [µM] | MIC [3, 20] [µM] | MIC [3, 21] [µM] | IC50 [4, 22] | MIC [5, 23] [µM] | MIC [5, 24] [µM] | MIC ([6]; 24 h, read-out: MIC MRSA 24 h) [µM] | MIC ([6]; 48 h, read-out: MIC MRSA 48 h) [µM] | Selectivity AChE/BuChE [10] | IC50 [10, 25] [µM] | MIC [13, 26] [µM] | MIC [13, 27] [µM] | MIC [14, 28] [µM] | MIC [14, 29] [µM] | MIC KP 24 h [15] [µM] | MIC KP 48 h [15] [µM] | also measured
[H]/N=C(\N)NN=Cc1cc(Cl)cc(I)c1O [Compound 1l, (E)-2-(5-Chloro-2-hydroxy-3-iodobenzylidene)hydrazine-1-carboximidamide] | 250 (≈ 84.6 µg/mL) | 250 (≈ 84.6 µg/mL) | 500 (≈ 169 µg/mL) | 500 (≈ 169 µg/mL) | 250 (≈ 84.6 µg/mL) | 250 (≈ 84.6 µg/mL) | < 20 µM and 5.42 µM | 250 (≈ 84.6 µg/mL) | 250 (≈ 84.6 µg/mL) | 250 (≈ 84.6 µg/mL) | 250 (≈ 84.6 µg/mL) | 4.08 | 22.1 ± 0.55 | 500 (≈ 169 µg/mL) | 500 (≈ 169 µg/mL) | > 500 | > 500 | 250 (≈ 84.6 µg/mL) | 250 (≈ 84.6 µg/mL) | MIC ([7]; ATCC6258, 24 h, read-out: MIC CK 24 h): 500 µM (≈ 169 µg/mL); MIC ([7]; ATCC6258, 48 h, read-out: MIC CK 48 h): 500 µM (≈ 169 µg/mL); MIC ([8]; ATCC9533, 72 h, read-out: MIC TI 72 h): 125 µM (≈ 42.3 µg/mL); MIC ([8]; ATCC9533, 120 h, read-out: MIC TI 120 h): 125 µM (≈ 42.3 µg/mL); MIC ([9]; ATCC24443, 24 h, read-out: MIC CA 24 h): > 500 µM; MIC ([9]; ATCC24443, 48 h, read-out: MIC CA 48 h): > 500 µM; MIC ([11]; ATCC22019, 24 h, read-out: MIC CP 24 h): 500 µM (≈ 169 µg/mL); MIC ([11]; ATCC22019, 48 h, read-out: MIC CP 48 h): 500 µM (≈ 169 µg/mL); MIC ([12]; ATCC750, 24 h, read-out: MIC CT 24 h): 500 µM (≈ 169 µg/mL); MIC ([12]; ATCC750, 48 h, read-out: MIC CT 48 h): 500 µM (≈ 169 µg/mL)
[H]/N=C(\N)NN=Cc1ccco1 [Compound 3a, (E)-2-(Furan-2-ylmethylene)hydrazine-1-carboximidamide] |  |  |  |  |  |  | 82.3 ± 3.02 µM |  |  |  |  | 0.50 | 41.1 ± 0.54 |  |  |  |  |  |  | 
N=C(N/N=C/c1ccc([N+](=O)[O-])o1)N/N=C/c1ccc([N+](=O)[O-])o1 [Compound 3c, (E)-2-[(5-Nitrofuran-2-yl)methylene]-N’-[(E)-(5-nitrofuran-2-yl)methylene]hydrazine-1-carboximidamide hydrochloride] |  |  |  |  |  |  |  |  |  |  |  | <0.08 |  |  |  |  |  |  |  | IC50 ([4]; IC50 BuChE): > 500 µM; IC50 [10]: 40 ± 2.56 µM
NC(=O)N/N=C/c1ccc([N+](=O)[O-])o1 [Compound 3d, (E)-2-[(5-Nitrofuran-2-yl)methylene]hydrazine-1-carboxamide] | 500 (≈ 99.1 µg/mL) | 500 (≈ 99.1 µg/mL) | > 500 | > 500 | 31.2 (≈ 6.19 µg/mL) | 62.5 (≈ 12.4 µg/mL) | > 500 µM | 125 (≈ 24.8 µg/mL) | 250 (≈ 49.5 µg/mL) | 62.5 (≈ 12.4 µg/mL) | 125 (≈ 24.8 µg/mL) | <0.07 | 36.6 ± 0.69 | 62.5 (≈ 12.4 µg/mL) | 125 (≈ 24.8 µg/mL) | > 500 | > 500 | 62.5 (≈ 12.4 µg/mL) | 125 (≈ 24.8 µg/mL) | 
OC(Cn1cncn1)(Cn1cncn1)c1ccc(F)cc1F [FLU, fluconazole, reference compound] |  |  |  |  |  |  |  |  |  |  |  |  |  |  |  |  |  |  |  | IC50 ([7]; ATCC6258, 24 h, read-out: IC50 (50% growth inhibition) CK 24 h): > 104 µM; IC50 ([7]; ATCC6258, 48 h, read-out: IC50 (50% growth inhibition) CK 48 h): > 104 µM; IC50 ([8]; ATCC9533, 72 h, read-out: IC50 (50% growth inhibition) TI 72 h): 52.2 µM; IC50 ([8]; ATCC9533, 120 h, read-out: IC50 (50% growth inhibition) TI 120 h): 52.2 µM; IC50 ([9]; ATCC24443, 24 h, read-out: IC50 (50% growth inhibition) CA 24 h): 6.5 µM; IC50 ([9]; ATCC24443, 48 h, read-out: IC50 (50% growth inhibition) CA 48 h): 6.5 µM; IC50 ([11]; ATCC22019, 24 h, read-out: IC50 (50% growth inhibition) CP 24 h): 3.3 µM; IC50 ([11]; ATCC22019, 48 h, read-out: IC50 (50% growth inhibition) CP 48 h): 3.3 µM; IC50 ([12]; ATCC750, 24 h, read-out: IC50 (50% growth inhibition) CT 24 h): 6.5 µM; IC50 ([12]; ATCC750, 48 h, read-out: IC50 (50% growth inhibition) CT 48 h): 6.5 µM
CCN1CCN(C(=O)N[C@@H](C(=O)N[C@@H]2C(=O)N3[C@@H]2SC(C)(C)[C@@H]3C(=O)O)c2ccccc2)C(=O)C1=O [PIP, piperacillin sodium salt, reference compound] | 1.85 | 1.85 | > 59.3 | > 59.3 | > 59.3 | > 59.3 |  | 7.41 | 7.41 | 14.8 | 14.8 |  |  | 1.85 | 1.85 | 14.8 | 14.8 | >59.31 | >59.31 | 
